Source: US6605424B1, “Method of detecting inhibitors of agonist-specific desensitization” (Duke University, priority 1989, dated 2003)
“And” between values parts separate entries of the source, which are not always exact repeats. Equal values may be shown once. Residues, ends and D or L forms follow the SMILES beside them. No end group written: not given here.

Legend:
βAR kinase [1] = target: T1, βAR kinase (Bos taurus, UniProt P21146); assay: Phosphorylation of rhodopsin (urea-treated rod outer segments) by βAR kinase; assay type: biochemical, bovine; settings: for inhibition of βAR kinase: polycations, FIG. 3; for Hill coefficient of inhibition: data of FIG. 1
T1 construct: βAR kinase was purified from bovine cerebral cortex; from tissue; host or cells: bovine cerebral cortex
T1 sequence (P21146 1-689): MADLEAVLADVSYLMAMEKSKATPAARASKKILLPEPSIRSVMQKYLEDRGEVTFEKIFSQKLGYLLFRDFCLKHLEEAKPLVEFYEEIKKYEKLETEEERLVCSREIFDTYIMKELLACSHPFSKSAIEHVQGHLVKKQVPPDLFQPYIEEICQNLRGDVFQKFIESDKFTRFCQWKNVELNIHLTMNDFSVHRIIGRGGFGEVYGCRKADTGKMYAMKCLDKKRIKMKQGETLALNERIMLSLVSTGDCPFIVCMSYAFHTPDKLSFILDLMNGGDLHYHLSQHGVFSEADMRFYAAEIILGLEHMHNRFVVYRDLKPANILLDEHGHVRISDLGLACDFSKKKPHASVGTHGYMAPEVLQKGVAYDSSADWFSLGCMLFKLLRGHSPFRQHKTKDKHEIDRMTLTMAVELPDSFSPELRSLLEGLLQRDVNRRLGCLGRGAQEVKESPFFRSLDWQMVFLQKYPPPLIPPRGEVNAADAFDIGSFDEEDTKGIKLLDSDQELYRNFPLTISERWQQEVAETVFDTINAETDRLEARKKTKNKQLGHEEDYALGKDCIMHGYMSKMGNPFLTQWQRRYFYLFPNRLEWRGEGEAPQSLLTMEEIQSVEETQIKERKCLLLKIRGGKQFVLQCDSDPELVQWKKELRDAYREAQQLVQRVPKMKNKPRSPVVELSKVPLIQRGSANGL
Procedure: βAR kinase was purified from bovine cerebral cortex by modification of procedure of Benovic et al (J. Biol. Chem. (1987) 262:9026-9032). Briefly, 250 g of bovine cerebral cortex were homogenized with a Brinkmann tissue disrupter and centrifuged (40,000×g, 30 min). The supernatant was then precipitated with 13-26% ammonium sulfate. This material was initially chromatographed on a Ultrogel AcA34 column equilibrated with 5 mM Tris-HCl, pH 7.5, 2 mM EDTA, 10 μg/ml leupeptin, 5 μg/ml pepstatin, 10 μg/ml benzamidine, 0.2 mM phenylmethylsulfonyl fluoride (buffer A). The peak activity was diluted with an equal volume of buffer A containing 0.04% Triton X-100 before being applied to a DEAE-Sephacel column. Elution was accomplished with a 0-80 mM NaCl gradient in buffer A containing 0.02% Triton X-100. The peak activity was then applied to a CM-Fractogel column and eluted with a 0-100 mM NaCl gradient in buffer A containing 0.02% Triton X-100. The purified kinase is stable at 4° C. for several months. For these studies the βAR kinase preparations were >75% pure.
Rod outer segments were prepared from bovine retinas by stepwise sucrose gradient centrifugation (Wilden et al Biochemistry (1982) 21:3014-3022). Rhodopsin kinase-free rod outer segments were prepared by treatment with 5 M urea (Shichi et al J. Biol. Chem. (1978) 253:7040-7046) and consisted of ˜95% rhodopsin, as assessed by Coomassie Blue staining of sodium dodecyl sulfate-polyacrylamide gels.
Urea-treated rod outer segments were phosphorylated with βAR kinase as follows. Urea-treated rod outer segments (˜4 μg of rhodopsin) were incubated with βAR kinase (˜0.1 μg) for 10-15 min at 30° C. in the presence of 40 mM Tris-HCl, pH 7.4, 10 mM NaCl, 5 mM MgCl2, 1.5 mM EDTA, and 65 μM ATP (˜1 cpm/fmol) (total reaction volume was 40 μl). Reactions were stopped by the addition of 40 μl of sodium dodecyl sulfate sample buffer (see below) followed by sodium dodecyl sulfate-polyacrylamide gel electrophoresis. After autoradiography, the phosphorylated rhodopsin bands were excised and counted.
Sodium dodecyl sulfate-polyacrylamide gel electrophoresis was performed by the method of Laemmli (Nature (1970) 227:680-685) using 10% homogeneous polyacrylamide slab gels. Sample buffer contained 8% sodium dodecyl sulfate, 10% glycerol, 5% 3-mercaptoethanol, 25 mM Tris-HCl, pH 6.5, and 0.003% bromphenol blue. After electrophoresis, gels were dried with a Bio-Rad gel dryer prior to autoradiography.

βAR kinase [2] = target: T1, βAR kinase; assay: Inhibition of β2AR phosphorylation by βAR kinase by synthetic peptides (Example III); assay type: biochemical, bovine; settings: for inhibition of β2AR phosphorylation: tested at ˜0.5 mM
Procedure: FIG. 13. Inhibition of β2AR phosphorylation by synthetic peptides. Reconstituted β2AR (˜0.4 pmol) was incubated for 30 min at 30° with purified βAR kinase (˜30 ng) in the presence of 50 mM Tris-HCl, pH 7.5, 2 mM EDTA, 10 mM NaCl, 5 mM MgCl2, 5 mM sodium phosphate, 50 μM (−)-isoproterenol and 0.10 mM [γ^32P]ATP (2.0 cpm/fmol). Synthetic β2AR peptides were varied from 0 to 1 mM and included CI (Δ), CII (▴), CIII-2 (◯) and CT-1 (●). Reactions were stopped by the addition of […]. ^32P-labeled receptor was determined by cutting and counting the dried gel following autoradiography.
The β2-adrenergic receptor from hamster lung was purified to apparent homogeneity by sequential affinity and high performance liquid chromatography as described (Benovic et al (1984) Biochemistry 23:4510-4518). The purified receptor was reinserted into phosphatidylcholine vesicles as previously described (Cerione et al (1983) Nature 306:562-566). The protein-lipid pellets were resuspended in 20 mM Tris-HCl, pH 7.2, 2 mM EDTA and used as a substrate for the βAR kinase.
βAR kinase was purified from bovine cerebral cortex by modification of a previously described procedure (Benovic et al (1987) J. Biol. Chem. 262:9026-9032). Briefly, 250 g of bovine cortex was homogenized and the resulting high speed supernatant fraction was precipitated with 13-26% ammonium sulfate. This material was initially chromatographed on an Ultrogel AcA34 column equilibrated with 5 mM Tris-HCl, pH 7.5, 2 mM EDTA, 5 μg/ml leupeptin, 5 μg/ml pepstatin, 15 μg/ml benzamidine, 0.2 mM phenylmethyl sulfonyl fluoride (buffer A). The peak activity was diluted 1:1 with buffer A containing 0.02% triton X-100 and applied to a DEAE Sephacel column. Elution was accomplished with a 0-80 mM NaCl gradient in buffer A containing triton X-100. The peak activity was then applied directly to a CM Fractogel column and eluted with a 0-100 mM NaCl gradient in buffer A containing triton X-100. The purified kinase was stored at 4° C.
The inhibition of substrate phosphorylation by βAR kinase in the presence of synthetic peptides was assayed as follows. Reconstituted βAR (0.2-1 pmol/inclubation) was incubated with βAR kinase (10-30 ng) in a buffer containing 50 mM Tris-HCl, pH 7.5, 2 mM EDTA, 10 mM NaCl, 5 mM MgCl2, 5 mM sodium phosphate, 50 μM (−)-isoproterenol, 0.10 mM [γ-^32P]ATP (1-3 cpm/fmol) at 30° C. for 30 min. Synthetic β2AR peptides were varied in concentration from 0 to 2 mM. Reactions were quenched by the addition of SDS sample buffer followed by gel electrophoresis. In some experiments urea treated rod outer segments (Wilden et al (1982) Biochemistry 21:3014-3022; Shichi et al (1978) J. Biol. Chem. 253:7040-7046) were used as the substrate for βAR kinase. To further define the specificity of the peptide inhibition, phosvitin, casein (see Example I) and the synthetic peptides CT-2 and CT-3 were used as substrates for βAR kinase.
SDS polyacrylamide gel electrophoresis was performed by the method of Laemmli (Nature (1970) 227:[…]) using 10 or 15% homogeneous slab gels. SDS sample buffer contained 8% SDS, 10% glycerol, 5% β-mercaptoethanol, 25 mM Tris-HCl, pH 6.5 and 0.003% bromphenol blue. SDS urea polyacrylamide gel electrophoresis was carried out using 6.5 M urea, 0.1% SDS, 100 mM H3PO4, pH 6.8 with Tris-HCl and 9% acrylamide (Swank et al (1971) Anal. Biochem. 39:462). SDS urea sample buffer contained 1% SDS, 8M urea, 10 mM H3PO4, pH 6.8 with Tris-HCl, 1% β-mercaptoethanol and 0.003% bromphenol blue.

[3] = read-out: IC50 (concentration of compound which gave 50% inhibition of βAR kinase), rhodopsin as substrate
[4] = rhodopsin as substrate, mean ± S.E.
[5] = IC50 (concentration of compound which gave 50% inhibition of βAR kinase), rhodopsin as substrate
[6] = IC50 (concentration of compound which gave 50% inhibition of βAR kinase), rhodopsin as substrate, mean ± S.E.
[7] = β2AR as substrate, read-out: IC50 (μM), first intracellular loop peptides as inhibitors of βAR kinase
[8] = hamster β2AR peptides, ND = no significant inhibition at ˜500 μM, read-out: IC50 (μM), inhibition of β2AR phosphorylation by βAR kinase

## O=C(O)C(COP(=O)(O)O)OP(=O)(O)O (centres unmarked) [2,3-Diphosphoglycerate, 2,3-diphosphoglycerate]
βAR kinase [1]; [3]
  IC50: 1100 µM
βAR kinase [1]; rhodopsin as substrate
  concentration range of inhibition: millimolar range
βAR kinase [1]; [4]
  IC50 (concentration of compound which gave 50% inhibition of βAR kinase): 838 µg/mL

## CC[C@H](C)[C@H](NC(=O)[C@H](C)NC(=O)[C@H](CCCCN)NC(=O)[C@H](CCC(N)=O)NC(=O)[C@H](Cc1c[nH]cn1)NC(=O)[C@@H](N)[C@@H](C)O)C(=O)N[C@@H](CC(=O)O)C(=O)N[C@@H](CS)C(=O)N[C@@H](Cc1ccc(O)cc1)C(=O)N[C@@H](Cc1c[nH]cn1)C(=O)N[C@@H](CCCCN)C(=O)N[C@@H](CCC(=O)O)C(=O)N[C@H](C(=O)N[C@@H](CS)C(=O)O)[C@@H](C)O [EII (177-190)] (H-THQKAIDCYHKETC-OH; N-terminus and C-terminus assumed)
βAR kinase [2]
  inhibition of β2AR phosphorylation: do not inhibit

## O=S(=O)(O)NC1C(O)OC(COS(=O)(=O)O)C(O)C1O (centres unmarked) [Glucosamine 2,6-disulfate, glucosamine 2,6-disulfate]
βAR kinase [1]; [3]
  IC50: 7300 µM
βAR kinase [1]; rhodopsin as substrate
  concentration range of inhibition: millimolar range
βAR kinase [1]; [4]
  IC50 (concentration of compound which gave 50% inhibition of βAR kinase): 2800 µg/mL

## O=P(O)(O)O[C@H]1[C@H](OP(=O)(O)O)[C@@H](OP(=O)(O)O)[C@H](OP(=O)(O)O)[C@@H](OP(=O)(O)O)[C@H]1OP(=O)(O)O [Inositol hexaphosphate, inositol hexaphosphate]
βAR kinase [1]; [5]
  IC50: 3600 µM
βAR kinase [1]; [6]
  IC50: 5040 µM

## O=S(=O)(O)OC1C(OS(=O)(=O)O)C(OS(=O)(=O)O)C(OS(=O)(=O)O)C(OS(=O)(=O)O)C1OS(=O)(=O)O (centres unmarked) [Inositol hexasulfate, inositol hexasulfate]
βAR kinase [1]; [5]
  IC50: 13.5 µM
βAR kinase [1]; [6]
  IC50: 18.2 µM
βAR kinase [1]; rhodopsin as substrate
  times more potent than inositol hexaphosphate: ~270 times

## Cc1ncc(COP(=O)(O)O)c(C=O)c1O [Pyridoxal phosphate, pyridoxal phosphate]
βAR kinase [1]; [5]
  IC50: 900 µM
βAR kinase [1]; [6]
  IC50: 898 µM
βAR kinase [1]; rhodopsin as substrate
  concentration range of inhibition: millimolar range

## NCCCNCCCCNCCCN [Spermine, spermine]
βAR kinase [1]
  inhibition of βAR kinase: weak inhibitors

## NCCCCNCCCN [spermidine]
βAR kinase [1]
  inhibition of βAR kinase: weak inhibitors

## AIAAFEALQTVTNYF [β2AR (57-71, K → A, R → A)]
βAR kinase [2]; [7]
  IC50: 88 µM

## AIAKFERAQTVTAYF [β2AR (57-71, L → A, N → A)]
βAR kinase [2]; [7]
  IC50: 43 µM

## AIAKFQRLQTVTNYF [β2AR (57-71, E → Q), AIAKFORLQTVTNYF]
βAR kinase [2]; [7]
  IC50: 280 µM

## AIAKTPRLQTLTNLF [β1AR]
βAR kinase [2]; [7]
  IC50: 700 µM

## AVFTSRALKAPQNLF [α2AR]
βAR kinase [2]; [7]
  IC50: > 1000 µM

## KFERLQT [β2AR (60-66), KFERLQT]
βAR kinase [2]; [7]
  IC50: 2600 µM

## KMWNFGNFWC [EI (97-106)]
βAR kinase [2]; [8]
  IC50: 300 µM

## SHVPDHDVTEERDEAW [NT (17-32)]
βAR kinase [2]
  inhibition of β2AR phosphorylation: do not inhibit

## TAIAKFERLQTVTNYFITS [β2AR (56-74)]
βAR kinase [2]; [8]
  IC50: ~40 µM and 40 µM
βAR kinase [2]; [7]
  IC50: 40 µM

## VTVQHKKLRTPLNYI [Rhodopsin]
βAR kinase [2]; [7]
  IC50: > 1000 µM

## chondroitin sulfate B
βAR kinase [1]; [4]
  IC50 (concentration of compound which gave 50% inhibition of βAR kinase): 25 µg/mL

## chondroitin sulfate C
βAR kinase [1]; [4]
  IC50 (concentration of compound which gave 50% inhibition of βAR kinase): 6 µg/mL

## de-N-sulfated heparin
βAR kinase [1]
  Hill coefficient of inhibition: ~2
βAR kinase [1]; rhodopsin as substrate
  fold weaker than heparin: ~8 fold
βAR kinase [1]; [4]
  IC50 (concentration of compound which gave 50% inhibition of βAR kinase): 6.0 ± 2.4 µg/mL

## dextran sulfate
βAR kinase [1]
  Hill coefficient of inhibition: ~2
βAR kinase [1]; [3]
  IC50: 0.15 µM
βAR kinase [1]; [4]
  IC50 (concentration of compound which gave 50% inhibition of βAR kinase): 0.76 ± 0.21 µg/mL

## heparan sulfate
βAR kinase [1]; [4]
  IC50 (concentration of compound which gave 50% inhibition of βAR kinase): 1.8 µg/mL

## polyaspartic acid
βAR kinase [1]; [3]
  IC50: 1.3 µM
βAR kinase [1]; [4]
  IC50 (concentration of compound which gave 50% inhibition of βAR kinase): 14 µg/mL

## polyglutamic acid
βAR kinase [1]; [3]
  IC50: 2 µM
βAR kinase [1]; [4]
  IC50 (concentration of compound which gave 50% inhibition of βAR kinase): 27 ± 2 µg/mL
